Source: patent US8143244B2, “Cyclopropyl fused indolobenzazepine HCV NS5B inhibitors” (Bristol-Myers Squibb Company, priority 2009, dated 2012)
Like-named read-outs stand apart in the source and are kept apart here.

Legend:
HCV NS5B = biological target: T1, HCV NS5B (Hepatitis C virus genotype 1b, UniProt Q9WMX2); assay: HCV NS5B RdRp enzyme assay; format: biochemical; conditions: HCV NS5B RdRp genotype 1b
T1 construct: The protein was expressed with an 18 amino acid C-terminal truncation to enhance the solubility; made in house; host or cells: E. coli BL21(DE3)
T1 sequence (Q9WMX2 2420-2992): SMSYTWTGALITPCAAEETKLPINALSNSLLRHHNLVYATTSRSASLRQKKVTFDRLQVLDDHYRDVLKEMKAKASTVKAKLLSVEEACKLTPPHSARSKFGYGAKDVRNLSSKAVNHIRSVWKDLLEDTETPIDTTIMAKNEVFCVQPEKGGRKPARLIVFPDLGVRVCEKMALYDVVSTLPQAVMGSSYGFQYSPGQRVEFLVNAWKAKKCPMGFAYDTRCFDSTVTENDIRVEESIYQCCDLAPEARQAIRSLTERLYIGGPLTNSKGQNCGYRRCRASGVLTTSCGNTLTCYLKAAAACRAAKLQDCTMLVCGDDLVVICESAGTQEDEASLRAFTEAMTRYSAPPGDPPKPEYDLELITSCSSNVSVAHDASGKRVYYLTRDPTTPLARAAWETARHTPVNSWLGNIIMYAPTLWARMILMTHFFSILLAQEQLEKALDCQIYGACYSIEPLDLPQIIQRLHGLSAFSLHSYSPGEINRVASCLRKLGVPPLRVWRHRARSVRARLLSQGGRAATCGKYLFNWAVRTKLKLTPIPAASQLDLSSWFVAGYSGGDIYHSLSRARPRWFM
Procedure: HCV NS5B RdRp cloning, expression, and purification. The cDNA encoding the NS5B protein of HCV, genotype 1b, was cloned into the pET21a expression vector. The protein was expressed with an 18 amino acid C-terminal truncation to enhance the solubility. The E. coli competent cell line BL21(DE3) was used for expression of the protein. Cultures were grown at 37° C. for ˜4 hours until the cultures reached an optical density of 2.0 at 600 nm. The cultures were cooled to 20° C. and induced with 1 mM IPTG. Fresh ampicillin was added to a final concentration of 50 μg/ml and the cells were grown overnight at 20° C.
Cell pellets (3L) were lysed for purification to yield 15-24 mgs of purified NS5B. The lysis buffer consisted of 20 mM Tris-HCl, pH 7.4, 500 mM NaCl, 0.5% triton X-100, 1 mM DTT, 1 mM EDTA, 20% glycerol, 0.5 mg/ml lysozyme, 10 mM MgCl2, 15 ug/ml deoxyribonuclease I, and Complete TM protease inhibitor tablets (Roche). After addition of the lysis buffer, frozen cell pellets were resuspended using a tissue homogenizer. To reduce the viscosity of the sample, aliquots of the lysate were sonicated on ice using a microtip attached to a Branson sonicator. The sonicated lysate was centrifuged at 100,000×g for 1 hr at 4° C. and filtered through a 0.2 μm filter unit (Corning).
The protein was purified using three sequential chromatography steps: Heparin sepharose CL-6B, polyU sepharose 4B, and Hitrap SP sepharose (Pharmacia). The chromatography buffers were identical to the lysis buffer but contained no lysozyme, deoxyribonuclease I, MgCl2 or protease inhibitor and the NaCl concentration of the buffer was adjusted according to the requirements for charging the protein onto the column. Each column was eluted with a NaCl gradient which varied in length from 5-50 column volumes depending on the column type. After the final chromatography step, the resulting purity of the enzyme is >90% based on SDS-PAGE analysis. The enzyme was aliquoted and stored at −80° C.
Standard HCV NS5B RdRp enzyme assay. HCV RdRp genotype 1b assays were run in a final volume of 60 μl in 96 well plates (Costar 3912). The assay buffer is composed of 20 mM Hepes, pH 7.5, 2.5 mM KCl, 2.5 mM MgCl2, 1 mM DTT, 1.6 U RNAse inhibitor (Promega N2515), 0.1 mg/ml BSA (Promega R3961), and 2% glycerol. All compounds were serially diluted (3-fold) in DMSO and diluted further in water such that the final concentration of DMSO in the assay was 2%. HCV RdRp genotype 1b enzyme was used at a final concentration of 28 nM. A polyA template was used at 6 nM, and a biotinylated oligo-dT12 primer was used at 180 nM final concentration. Template was obtained commercially (Amersham 27-4110). Biotinylated primer was prepared by Sigma Genosys. 3H-UTP was used at 0.6 μCi (0.29 μM total UTP). Reactions were initiated by the addition of enzyme, incubated at 30° C. for 60 min, and stopped by adding 25 μl of 50 mM EDTA containing SPA beads (4 μg/μl, Amersham RPNQ 0007). Plates were read on a Packard Top Count NXT after >1 hr incubation at room temperature.
Modified HCV NS5B RdRp enzyme assay. A modified enzyme assay was performed essentially as described for the standard enzyme assay except for the following: The biotinylated oligo dT12 primer was precaptured on streptavidin-coated SPA beads by mixing primer and beads in assay buffer and incubating at room temperature for one hour. Unbound primer was removed after centrifugation. The primer-bound beads were resuspended in 20 mM Hepes buffer, pH 7.5 and used in the assay at final concentrations of 20 nM primer and 0.67 μg/μl beads. Order of addition in the assay: enzyme (14 nM) was added to diluted compound followed by the addition of a mixture of template (0.2 nM), 3H-UTP (0.6 μCi, 0.29 μM), and primer-bound beads, to initiate the reaction; concentrations given are final. Reactions were allowed to proceed for 4 hours at 30° C.
IC50 values for compounds were determined using seven different [I]. […]

HCV replicon = HCV replicon FRET / luciferase assay (NeoLuc); format: cell-based, HCV genotype 1b; conditions: Hepatitis C virus, HCV replicon cells
Text: FRET Assay Preparation. To perform the HCV FRET screening assay, 96-well cell culture plates were used. The FRET peptide (Anaspec, Inc.) (Taliani et al., Anal. Biochem. 1996, 240, 60-67) contains a fluorescence donor, EDANS, near one end of the peptide and an acceptor, DABCYL, near the other end. The fluorescence of the peptide is quenched by […] resonance energy transfer (RET) between the donor and the acceptor, but as the NS3 protease cleaves the peptide the products are released from RET quenching and the fluorescence of the donor becomes apparent. The assay reagent was made as follows: 5× cell Luciferase cell culture lysis reagent from Promega (#E153A) diluted to 1× with dH2O, NaCl added to 150 mM final, the FRET peptide diluted to 20 μM final from a 2 mM stock.
To prepare plates, HCV replicon cells, with or without a Renilla luciferase reporter gene, were trypsinized and placed into each well of a 96-well plate with titrated test compounds added in columns 3 through 12; columns 1 and 2 contained a control compound (HCV protease inhibitor), and the bottom row contained cells without compound. The plates were then placed in a CO2 incubator at 37° C.
Assays. Subsequent to addition of the test compounds described above (FRET Assay Preparation), at various times the plate was removed and Alamar blue solution (Trek Diagnostics, #00-100) was added per well as a measure of cellular toxicity. After reading in a Cytoflour 4000 instrument (PE Biosystems), plates were rinsed with PBS and then used for FRET assay by the addition of 30 ul of the FRET peptide assay reagent described above (FRET Assay Preparation) per well. The plate was then placed into the Cytoflour 4000 instrument which had been set to 340 excite/490 emission, automatic mode for 20 cycles and the plate read in a kinetic mode. Typically, the signal to noise using an endpoint analysis after the reads was at least three-fold. Alternatively, after Alamar blue reading, plates were rinsed with PBS, 50 ul of DMEM (high glucose) without phenol red was added and plates were then used for luciferase assay using the Promega Dual-Glo Luciferase Assay System,
Compound analysis was deteiniined by quantification of the relative HCV replicon inhibition and the relative cytotoxicity values. To calculate cytoxicity values, the average Alamar Blue fluorescence signals from the control wells were set as 100% non-toxic. The individual signals in each of the compound test wells were then divided by the average control signal and multiplied by 100% to determine […]. To calculate the HCV replicon inhibition values, an average background value was obtained from the two wells containing the highest amount of HCV protease inhibitor at the end of the assay period. These numbers were similar to those obtained from naïve Huh-7 cells.
The background numbers were then subtracted from the average signal obtained from the control wells and this number was used as 100% activity. The individual signals in each of the compound test wells were then divided by the averaged control values after background subtraction and multiplied by 100% to determine percent activity. EC50 values for a protease inhibitor titration were calculated as the concentration which caused a 50% reduction in FRET or luciferase activity. The two numbers generated for the compound plate, percent cytoxicity and percent activity were used to determine compounds of interest for further analysis.

[1] = genotype 1b, read-out: NeoLuc EC50, Table 1, genotype 1b

| SMILES | IC50 (HCV NS5B; Table 1) | EC50 (HCV replicon; [1]) | IC50 (HCV NS5B; Table 2) | EC50 (HCV replicon; Table 2, read-out: NeoLuc EC50) |
| --- | --- | --- | --- | --- |
| COc1ccc2c(c1)C1CC1(C(=O)N1CC34CNCC3(COC4)C1)Cn1c-2c(C2CCCCC2)c2ccc(C(=O)NS(=O)(=O)C(C)C)cc21 (stereo not shown) | 1.9 to 500 nM | 1.9 to 500 nM |  |  |
| C=C(/C=C1\C(=C)c2c(C3CCCCC3)c3ccc(C(=O)NS(=O)(=O)C(C)C)cc3n2CC2(C(=O)N3CC45CNCC4(CNC5)C3)CC12)OC (stereo not shown) | < 2.3 nM | > 1000 nM |  |  |
| COc1ccc2c(c1)C1CC1(C(=O)N1CC34COCC3(CN(C)C4)C1)Cn1c-2c(C2CCCCC2)c2ccc(C(=O)NS(=O)(=O)C(C)C)cc21 (stereo not shown) | < 2.3 nM | 1.9 to 500 nM |  |  |
| COc1ccc2c(c1)C1CC1(C(=O)N1CC34CN(C)CC3(CN(C)C4)C1)Cn1c-2c(C2CCCCC2)c2ccc(C(=O)NS(=O)(=O)C(C)C)cc21 (stereo not shown) | < 2.3 nM | 1.9 to 500 nM |  |  |
| C=C(C)S(=O)(=O)NC(=O)c1ccc2c(C3CCCCC3)c3n(c2c1)C[C@@]1(C(=O)N2CC45CNCC4(COC5)C2)C[C@H]1c1cc(OC)ccc1-3 (stereo partly shown) | < 2.3 nM | 1.9 to 500 nM |  |  |
| COc1ccc2c(c1)C1CC1(C(=O)N1CC34CNCC3(COC4)C1)Cn1c-2c(C2CCCCC2)c2ccc(C(=O)NS(=O)(=O)CC(C)C)cc21 (stereo not shown) | 1.9 to 500 nM | 1.9 to 500 nM |  |  |
| CCN1CC23COCC2(C1)CN(C(=O)C12CC1c1cc(OC)ccc1-c1c(C4CCCCC4)c4ccc(C(=O)NS(=O)(=O)C(C)C)cc4n1C2)C3 (stereo not shown) | 1.9 to 500 nM | 1.9 to 500 nM |  |  |
| COc1ccc2c(c1)C1CC1(C(=O)N1CC34COCC3(CN(C)C4)C1)Cn1c-2c(C2CCCCC2)c2ccc(C(=O)NS(=O)(=O)CC(C)C)cc21 (stereo not shown) | 1.9 to 500 nM | 1.9 to 500 nM |  |  |
| COC[C@]12CNC[C@@]1(COC)CN(C(=O)C13CC1c1cc(OC)ccc1-c1c(C4CCCCC4)c4ccc(C(=O)NS(=O)(=O)C(C)C)cc4n1C3)C2 (stereo partly shown) |  | 1.9 to 500 nM |  |  |
| C=C(C)S(=O)(=O)NC(=O)c1ccc2c(C3CCCCC3)c3n(c2c1)C[C@@]1(C(=O)N2C[C@@]4(COC)CNC[C@@]4(COC)C2)C[C@H]1c1cc(OC)ccc1-3 | < 20 nM | 500 to 1000 nM |  |  |
| COC[C@@]12CN(C)C[C@]1(COC)CN(C(=O)C13CC1c1cc(OC)ccc1-c1c(C4CCCCC4)c4ccc(C(=O)NS(=O)(=O)C(C)C)cc4n1C3)C2 (stereo partly shown) | 1.9 to 500 nM | 1.9 to 500 nM |  |  |
| C=C(C)S(=O)(=O)NC(=O)c1ccc2c(C3CCCCC3)c3n(c2c1)C[C@@]1(C(=O)N2C[C@]4(COC)CN(C)C[C@]4(COC)C2)C[C@H]1c1cc(OC)ccc1-3 | < 20 nM | 1.9 to 500 nM |  |  |
| COC(=O)N1CC23COCC2(C1)CN(C(=O)[C@]12C[C@H]1c1cc(OC)ccc1-c1c(C4CCCCC4)c4ccc(C(=O)NS(=O)(=O)C(C)C)cc4n1C2)C3 (stereo partly shown) | 1.9 to 500 nM |  |  |  |
| COC(=O)N1CC23COCC2(C1)CN(C(=O)[C@]12C[C@H]1c1cc(OC)ccc1-c1c(C4CCCCC4)c4ccc(C(=O)NS(=O)(=O)N(C)C)cc4n1C2)C3 (stereo partly shown) | > 1000 nM |  |  |  |
| CNC(=O)N1CC23COCC2(C1)CN(C(=O)[C@]12C[C@H]1c1cc(OC)ccc1-c1c(C4CCCCC4)c4ccc(C(=O)NS(=O)(=O)C(C)C)cc4n1C2)C3 (stereo partly shown) | 1.9 to 500 nM | 1.9 to 500 nM |  |  |
| CNC(=O)N1CC23COCC2(C1)CN(C(=O)[C@]12C[C@H]1c1cc(OC)ccc1-c1c(C4CCCCC4)c4ccc(C(=O)NS(=O)(=O)N(C)C)cc4n1C2)C3 (stereo partly shown) | 1.9 to 500 nM | 1.9 to 500 nM |  |  |
| COc1ccc2c(c1)[C@@H]1C[C@]1(C(=O)N1CC34COCC3(C1)CN(C1CC1)C4)Cn1c-2c(C2CCCCC2)c2ccc(C(=O)NS(=O)(=O)N(C)C)cc21 (stereo partly shown) | 1.9 to 500 nM | 1.9 to 500 nM |  |  |
| COc1ccc2c(c1)[C@@H]1C[C@]1(C(=O)N1CC34CCC3(C1)CN(C1CC1)C4)Cn1c-2c(C2CCCCC2)c2ccc(C(=O)NS(=O)(=O)C(C)C)cc21 (stereo partly shown) | 1.9 to 500 nM | 1.9 to 500 nM |  |  |
| CCOCCN1CC23COCC2(C1)CN(C(=O)[C@]12C[C@H]1c1cc(OC)ccc1-c1c(C4CCCCC4)c4ccc(C(=O)NS(=O)(=O)C(C)C)cc4n1C2)C3 (stereo partly shown) [drawing 101] | 1.9 to 500 nM | 1.9 to 500 nM |  |  |
| CCOCCN1CC23COCC2(C1)CN(C(=O)[C@]12C[C@H]1c1cc(OC)ccc1-c1c(C4CCCCC4)c4ccc(C(=O)NS(=O)(=O)C(C)C)cc4n1C2)C3 (stereo partly shown) [drawing 112] |  |  | 1.9 nM | 7.69 nM |
